One experiment relates to CA1 cells. Description: Plateau potentials evoked by glutamate photolysis on CA1 cell dendrites in hippocampal slice cultures. The format is cell-based. To be noted: compared with control CA1 cells. An excerpt:
It may be expected based on previous studies in the laboratory of the present inventor that partial denervation and removal of the majority of the excitatory input to area CA1 would result in a quiescent population of cells. In fact, local stimulation within area CA1 triggers prolonged, abnormally oscillatory synaptic responses in lesioned cultures that are never seen in normally innervated tissue (FIG. 1, top row), but only with a delay of 7 or more days after the injury (Wei et al., 2003). The reason is […] that denervation increases glutamate receptor expression in CA1 cells, akin to the well known phenomenon of denervation suprasensitivity in muscle. To confirm, the laboratory of the present inventor used photolysis of caged glutamate to compare the responses of CA1 cell dendrites in lesioned and unlesioned cultures.
In control cultures, distal, terminal dendritic branches of CA1 cells respond to weak photolysis of glutamate with passive subthreshold depolarizations. Stronger glutamate applications, however, trigger all-or-none Ca^2+-sensitive responses that are called plateau potentials (Wei et al., 2001). […] Plateau potentials, in contrast, are accompanied by Ca^2+ signals that can be seen throughout the stimulated dendrite within milliseconds, indicative of their rapid electrical propagation along the entire stimulated branch.

Experiment [1] has as its system animals with lesioned spinothalamic tracts. Description: von Frey filament test for allodynia after spinothalamic tract transection. To be noted: 500 mg/kg intraperitoneally; FIG. 4B. It is filed as in vivo, rat. Here is the method:
(§1) Spinothalamic tract transection. The spinothalamic tract is transected bilaterally at the level of the thoracic/lumbar border, thereby severing the ascending pathways conveying somatosensory, thermal and nociceptive information to the cortex via the thalamus. Male, adult Sprague-Dawley rats (ca. 200 gm) are anesthetized with pentobarbital and a T8 laminectomy is performed. The dura is opened with the tip of a 21 g. syringe needle to expose the spinal cord. The spinal cord is then lifted and rotated using a fine, sterile glass rod, and the ventral lateral pain pathways are severed electrolytically using a 1 MΩ sharpened tungsten needle and a 45 V pulse for 1 min. The lesion is packed with a small piece of sterile gelfoam. The overlying muscles and skin are closed and sutured, and the animal is allowed to recover on a 37° C. heating pad. Sham-operated controls undergo a laminectomy without dural penetration or spinal injury. This spinal transection procedure is a useful model of central pain syndrome where increased pain sensitivity and allodynia were observed. At various times after the lesion, standard behavioral tests were completed to assay the threshold for a stimulus to be perceived as painful, and allodynia was performed on awake, behaving animals. […] The paw withdrawal latency is automatically recorded when the rat withdraws its paw from the stimulus. […]

Experiment [2] shares this test system. As to the kind of experiment: Paw withdrawal latency test for hyperalgesia after spinothalamic tract transection. It is filed as in vivo, rat. The conditions noted are these: 500 mg/kg intraperitoneally; FIG. 4A. Here is the method:
as §1

For the compound `O=C(O)CN(CC(=O)O)c1ccccc1OCCOc1ccccc1N(CC(=O)O)CC(=O)O` [BAPTA], the “prolongation of plateau potentials in denervated CA1 cells” value with CA1 cells is listed as “occluded”.

As to `CC[N+](CC)(CC)CC` [TEA], the “prolongation of plateau potentials in denervated CA1 cells” value in the experiment on CA1 cells is given as “occluded”.

Regarding `CCC1(C)CC(=O)NC1=O` (stereo not shown) [ethosuximide, 2-methyl-2-ethyl succinimide], in experiment [1], the “allodynia (von Frey's test)” value is “reduced transiently”. For the same compound, in experiment [2], the “hyperalgesia (paw withdrawal latency)” value is reported as “reduced transiently”.

The values are drawn from patent US20090143450A1, “METHOD FOR TREATING CENTRAL PAIN SYNDROM OR FOR INDUCING CENTRALLY GENERATED PAIN IN AN ANIMAL MODEL” (UNIVERSITY OF MARYLAND, BALTIMORE, priority 2005, published 2009).
